From patent US20170334891A1, “ENHANCER OF ZESTE HOMOLOG 2 INHIBITORS” (GLAXOSMITHKLINE INTELLECTUAL PROPERTY (NO.2) LIMITED, priority 2014, published 2017) come the findings set out here.

T1 sequence (Q15910 whole entry): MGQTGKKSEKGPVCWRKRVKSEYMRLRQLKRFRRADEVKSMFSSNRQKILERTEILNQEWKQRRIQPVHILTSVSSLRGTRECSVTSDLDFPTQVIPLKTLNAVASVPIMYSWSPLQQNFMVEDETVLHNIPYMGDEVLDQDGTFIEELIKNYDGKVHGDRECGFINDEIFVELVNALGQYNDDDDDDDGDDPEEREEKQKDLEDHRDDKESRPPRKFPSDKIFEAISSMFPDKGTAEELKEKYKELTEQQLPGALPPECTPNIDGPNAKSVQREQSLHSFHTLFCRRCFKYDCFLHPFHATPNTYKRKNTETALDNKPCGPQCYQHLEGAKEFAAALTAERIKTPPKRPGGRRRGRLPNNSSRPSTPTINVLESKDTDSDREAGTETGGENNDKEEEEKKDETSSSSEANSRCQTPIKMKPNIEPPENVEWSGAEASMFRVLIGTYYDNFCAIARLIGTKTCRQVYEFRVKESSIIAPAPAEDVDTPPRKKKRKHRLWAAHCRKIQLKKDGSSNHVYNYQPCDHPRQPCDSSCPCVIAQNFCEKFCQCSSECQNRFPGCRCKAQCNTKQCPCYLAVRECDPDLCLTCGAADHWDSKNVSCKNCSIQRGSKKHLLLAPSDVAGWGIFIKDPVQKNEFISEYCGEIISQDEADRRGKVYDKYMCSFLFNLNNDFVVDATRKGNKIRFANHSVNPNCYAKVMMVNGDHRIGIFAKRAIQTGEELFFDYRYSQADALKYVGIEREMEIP
T1 sequence (O75530 whole entry partner): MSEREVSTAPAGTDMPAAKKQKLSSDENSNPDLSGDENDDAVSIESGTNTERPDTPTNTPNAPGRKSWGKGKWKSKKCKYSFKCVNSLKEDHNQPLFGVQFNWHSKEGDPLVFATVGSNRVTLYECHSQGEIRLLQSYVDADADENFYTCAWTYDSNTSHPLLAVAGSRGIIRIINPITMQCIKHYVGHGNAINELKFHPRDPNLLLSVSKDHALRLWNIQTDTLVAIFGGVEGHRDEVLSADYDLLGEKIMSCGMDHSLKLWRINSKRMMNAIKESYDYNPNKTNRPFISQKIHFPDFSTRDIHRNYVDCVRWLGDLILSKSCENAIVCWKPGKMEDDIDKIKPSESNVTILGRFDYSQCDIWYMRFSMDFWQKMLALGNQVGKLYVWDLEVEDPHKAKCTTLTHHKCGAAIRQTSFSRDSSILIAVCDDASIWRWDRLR
T1 sequence (Q15022 whole entry partner): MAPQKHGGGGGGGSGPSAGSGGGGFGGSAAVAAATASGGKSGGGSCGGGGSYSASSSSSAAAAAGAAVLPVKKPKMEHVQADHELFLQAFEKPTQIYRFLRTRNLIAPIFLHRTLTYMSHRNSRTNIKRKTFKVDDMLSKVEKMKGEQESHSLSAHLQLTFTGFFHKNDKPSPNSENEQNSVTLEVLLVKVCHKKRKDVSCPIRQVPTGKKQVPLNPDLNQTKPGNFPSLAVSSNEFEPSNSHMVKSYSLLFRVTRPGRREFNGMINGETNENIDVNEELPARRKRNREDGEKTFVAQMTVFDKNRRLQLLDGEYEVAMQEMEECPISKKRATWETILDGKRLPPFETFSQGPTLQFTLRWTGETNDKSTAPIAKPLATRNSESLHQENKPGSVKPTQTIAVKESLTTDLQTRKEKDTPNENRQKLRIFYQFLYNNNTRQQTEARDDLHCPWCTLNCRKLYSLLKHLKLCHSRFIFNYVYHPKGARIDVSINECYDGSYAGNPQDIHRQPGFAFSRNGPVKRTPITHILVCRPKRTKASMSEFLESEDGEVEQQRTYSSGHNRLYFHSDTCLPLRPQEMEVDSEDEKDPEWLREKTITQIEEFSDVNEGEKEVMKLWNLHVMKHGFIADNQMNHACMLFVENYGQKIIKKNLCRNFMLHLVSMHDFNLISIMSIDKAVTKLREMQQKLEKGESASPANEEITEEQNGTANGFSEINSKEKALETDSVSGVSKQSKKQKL
T1 sequence (Q09028 whole entry partner): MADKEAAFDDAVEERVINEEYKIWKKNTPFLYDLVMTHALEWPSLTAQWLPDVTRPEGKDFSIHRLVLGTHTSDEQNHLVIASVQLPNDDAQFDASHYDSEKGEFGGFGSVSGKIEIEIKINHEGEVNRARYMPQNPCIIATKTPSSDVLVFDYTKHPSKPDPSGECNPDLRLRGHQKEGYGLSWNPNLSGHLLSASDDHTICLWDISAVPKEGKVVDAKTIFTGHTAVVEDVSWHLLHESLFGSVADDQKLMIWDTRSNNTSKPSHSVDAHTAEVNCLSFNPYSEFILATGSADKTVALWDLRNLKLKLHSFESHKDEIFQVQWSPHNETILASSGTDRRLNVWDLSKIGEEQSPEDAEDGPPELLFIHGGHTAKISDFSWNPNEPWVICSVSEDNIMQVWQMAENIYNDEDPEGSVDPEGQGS
T1 sequence (Q6ZN18 whole entry partner): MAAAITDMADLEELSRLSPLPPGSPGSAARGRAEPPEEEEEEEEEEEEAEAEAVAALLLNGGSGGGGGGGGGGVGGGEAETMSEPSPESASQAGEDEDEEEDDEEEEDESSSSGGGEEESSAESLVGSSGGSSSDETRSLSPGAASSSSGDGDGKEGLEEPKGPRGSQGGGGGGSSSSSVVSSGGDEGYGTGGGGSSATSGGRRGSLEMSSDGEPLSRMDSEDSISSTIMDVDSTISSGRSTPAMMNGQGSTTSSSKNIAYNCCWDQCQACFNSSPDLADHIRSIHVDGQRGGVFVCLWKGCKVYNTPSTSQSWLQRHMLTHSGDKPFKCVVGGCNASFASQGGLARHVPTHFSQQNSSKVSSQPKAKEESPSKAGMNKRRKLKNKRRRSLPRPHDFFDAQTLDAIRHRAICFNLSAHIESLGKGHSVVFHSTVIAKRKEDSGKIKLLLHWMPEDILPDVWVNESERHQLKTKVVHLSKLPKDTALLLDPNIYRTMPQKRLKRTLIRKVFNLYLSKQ

This assay concerns the target T1, EZH2 within the PRC2 complex (Homo sapiens, UniProt Q15910).
T1 construct: FLAG; made in house; host or cells: Sf9 cells
Nature of the assay: EZH2 methyltransferase scintillation proximity assay (SPA). The settings on record: Human PRC2 5 member complex (FLAG-EZH2, EED, SUZ12, RbAp48, AEBP2), 1 nM enzyme, biotinylated histone H3K27 peptide, 3H-SAM, 60 min at room temperature. It is filed as biochemical. How it is done:
Compounds contained herein were evaluated for their ability to inhibit the methyltransferase activity of EZH2 within the PRC2 complex. Human PRC2 complex was prepared by co-expressing each of the 5 member proteins (FLAG-EZH2, EED, SUZ12, RbAp48, AEBP2) in Sf9 cells followed by co-purification. Enzyme activity was measured in a scintillation proximity assay (SPA) where a tritiated methyl group is transferred from 3H-SAM to a lysine residue on a biotinylated, unmethylated peptide substrate derived from histone H3. The peptides were captured on streptavidin-coated SPA beads and the resulting signal was read on a ViewLux plate reader.
• 1. Prepare 10 mM stock of compounds from solid in 100% DMSO. • 2. Set up an 11-point serial dilution (1:4 dilution, top concentration 10 mM) in 100% DMSO for each test compound in a 384 well plate leaving columns 6 and 18 for DMSO controls. • 3. Dispense 10 nL of compound from the dilution plate into reaction plates (Corning, 384-well polystyrene NBS, Cat#3673).
Prepare the following solutions: • 1. 1× Base Buffer, 50 mM Tris-HCl, pH 8, 2 mM MgCl2: Per 1 L of base buffer, combine 1 M Tris-HCl, pH 8 (50 mL), 1 M MgCl2 (2 mL), and distilled water (948 mL). • 2. 1× Assay Buffer: Per 10 mL of 1× Assay Buffer, combine 1× Base Buffer (9.96 mL), 1 M DTT (40 uL), and 10% Tween-20 (1 uL) to provide a final concentration of 50 mM Tris-HCl, pH 8, 2 mM MgCl2, 4 mM DTT, 0.001% Tween-20. • 3. 2× Enzyme Solution: Per 10 mL of 2× Enzyme Solution, combine 1× Assay Buffer (9.99 mL) and 3.24 uM EZH2 5 member complex (6.17 uL) to provide a final enzyme concentration of 1 nM. • 4. SPA Bead Solution: Per 1 mL of SPA Bead Solution, combine Streptavidin coated SPA beads (PerkinElmer, Cat# RPNQ0261, 40 mg) and 1× Assay Buffer (1 mL) to provide a working concentration of 40 mg/mL. • 5. 2× Substrate Solution: Per 10 mL of 2× Substrate Solution, combine 40 mg/mL SPA Bead Solution (375 uL), 1 mM biotinylated histone H3K27 peptide (200 uL), 12.5 uM 3H-SAM (240 uL; 1 mCi/mL), 1 mM cold SAM (57 uL), and 1× Assay Buffer (9.13 mL) to provide a final concentration of 0.75 mg/mL SPA Bead Solution, 10 uM biotinylated histone H3K27 peptide, 0.15 uM 3H-SAM (˜12 uCi/mL 3H-SAM), and 2.85 uM cold SAM. • 6. 2.67× Quench Solution: Per 10 mL of 2.67× Quench Solution, combine 1× Assay Buffer (9.73 mL) and 10 mM cold SAM (267 uL) to provide a final concentration of 100 uM cold SAM.
• 1. Stamp 10 nL/well of 1000× Compound to test wells (as noted above). • 2. Stamp 10 nL/well of 100% DMSO to columns 6 & 18 (high and low controls, respectively).
• 1. Dispense 5 uL/well of 1× Assay Buffer to column 18 (low control reactions). • 2. Dispense 5 uL/well of 2× Substrate Solution to columns 1-24 (note: substrate solution should be mixed to ensure homogeneous bead suspension before dispensing into matrix reservoir). • 3. Dispense 5 uL/well of 2× Enzyme Solution to columns 1-17, 19-24. • 4. Incubate the reaction for 60 min at room temperature.
• 1. Dispense 6 uL/well of the 2.67× Quench Solution to columns 1-24. • 2. Seal assay plates and spin for ˜1 min at 500 rpm. • 3. Dark adapt plates in the ViewLux instrument for 15-60 min.
• 1. Read the assay plates on the Viewlux Plate Reader utilizing the 613 nm emission filter or clear filter (300 s exposure). Reagent addition can be done manually or with automated liquid handler.
Percent inhibition was calculated relative to the DMSO control for each compound concentration and the resulting values were fit using standard IC50 fitting parameters within the ABASE data fitting software package.
The IC50 values of <10 nM indicate that the activity of compound was approaching the limit of detection in the assay. Repeating the assay run(s) may result in somewhat different IC50 values.
In general terms: SPA uses beads or plates that emit light when radiolabelled molecules are held near them.
For `CCC(c1scc(C(=O)NCc2c(C)cc(C)[nH]c2=O)c1C)C1CCN(CC(C)(C)F)CC1` (racemic) [Example 6, N-((4,6-Dimethyl-2-oxo-1,2-dihydropyridin-3-yl)methyl)-5-(1-(1-(2-fluoro-2-methylpropyl)piperidin-4-yl)propyl)-4-methylthiophene-3-carboxamide], the IC50 (usually the point on the concentration scale where inhibition reaches its midpoint) came to 50 nM. Under `CCC(c1scc(C(=O)NCc2c(C)cc(C)[nH]c2=O)c1C)C1CCN(CC(F)(F)F)CC1` (racemic) [Example 11, N-((4,6-Dimethyl-2-oxo-1,2-dihydropyridin-3-yl)methyl)-4-methyl-5-(1-(1-(2,2,2-trifluoroethyl)piperidin-4-yl)propyl)thiophene-3-carboxamide] stands 20 nM; under `CCC(c1scc(C(=O)NCc2c(C)cc(C)[nH]c2=O)c1C)C1CCN(CC(F)F)CC1` (racemic) [Example 14, 5-(1-(1-(2,2-Difluoroethyl)piperidin-4-yl)propyl)-N-((4,6-dimethyl-2-oxo-1,2-dihydropyridin-3-yl)methyl)-4-methylthiophene-3-carboxamide], 40 nM. Under `CCC(=C1CCN(CC(C)(F)F)CC1)c1scc(C(=O)NCc2c(C)cc(C)[nH]c2=O)c1C` [Example 1, 5-(1-(1-(2,2-Difluoropropyl)piperidin-4-ylidene)propyl)-N-((4,6-dimethyl-2-oxo-1,2-dihydropyridin-3-yl)methyl)-4-methylthiophene-3-carboxamide] stands 16 nM. Under `CCC(=C1CCN(CC(C)(C)F)CC1)c1scc(C(=O)NCc2c(C)cc(C)[nH]c2=O)c1C` [Example 2, N-((4,6-Dimethyl-2-oxo-1,2-dihydropyridin-3-yl)methyl)-5-(1-(1-(2-fluoro-2-methylpropyl)piperidin-4-ylidene)propyl)-4-methylthiophene-3-carboxamide] stands no more than 10 nM; under `CCC(=C1CCN(CC(F)(F)F)CC1)c1scc(C(=O)NCc2c(C)cc(C)[nH]c2=O)c1C` [Example 3, N-((4,6-Dimethyl-2-oxo-1,2-dihydropyridin-3-yl)methyl)-4-methyl-5-(1-(1-(2,2,2-trifluoroethyl)piperidin-4-ylidene)propyl)thiophene-3-carboxamide], no more than 10 nM.

Turning to `CC[C@@H](c1scc(C(=O)NCc2c(C)cc(C)[nH]c2=O)c1C)C1CCN(CC(C)(F)F)CC1` [Example 4, (R)-5-(1-(1-(2,2-Difluoropropyl)piperidin-4-yl)propyl)-N-((4,6-dimethyl-2-oxo-1,2-dihydropyridin-3-yl)methyl)-4-methylthiophene-3-carboxamide], inhibition was half-maximal at 20 nM (IC50). In the case of `CC[C@H](c1scc(C(=O)NCc2c(C)cc(C)[nH]c2=O)c1C)C1CCN(CC(C)(F)F)CC1` [Example 5, (S)-5-(1-(1-(2,2-Difluoropropyl)piperidin-4-yl)propyl)-N-((4,6-dimethyl-2-oxo-1,2-dihydropyridin-3-yl)methyl)-4-methylthiophene-3-carboxamide] it was 501 nM. Under `CCC(=C1CCN(N(C)C)CC1)c1scc(C(=O)NCc2c(C)cc(C)[nH]c2=O)c1C` [Example 7, N-((4,6-Dimethyl-2-oxo-1,2-dihydropyridin-3-yl)methyl)-5-(1-(1-(dimethylamino)piperidin-4-ylidene)propyl)-4-methylthiophene-3-carboxamide] stands 20 nM. Under `CCC(=C1CCN(O)CC1)c1scc(C(=O)NCc2c(C)cc(C)[nH]c2=O)c1C` [Example 8, N-((4,6-Dimethyl-2-oxo-1,2-dihydropyridin-3-yl)methyl)-5-(1-(1-hydroxypiperidin-4-ylidene)propyl)-4-methylthiophene-3-carboxamide] stands 16 nM; under `CCC(c1sc2c(c1C)C(=O)N(Cc1c(C)cc(C)[nH]c1=O)CC2)N1CCC(N(C)C)CC1` (stereo not shown) [Example 9], 50 nM. With `CCC(=C1CCC(O)CC1)c1scc(C(=O)NCc2c(C)cc(C)[nH]c2=O)c1C` (stereo not shown) [Example 10, N-((4,6-Dimethyl-2-oxo-1,2-dihydropyridin-3-yl)methyl)-5-(1-(4-hydroxycyclohexylidene)propyl)-4-methylthiophene-3-carboxamide], the half-maximal inhibitory concentration (IC50) is no more than 10 nM. Under `CCC(=C1CCN(Cc2ncco2)CC1)c1scc(C(=O)NCc2c(C)cc(C)[nH]c2=O)c1C` [Example 12, N-((4,6-Dimethyl-2-oxo-1,2-dihydropyridin-3-yl)methyl)-4-methyl-5-(1-(1-(oxazol-2-ylmethyl)piperidin-4-ylidene)propyl)thiophene-3-carboxamide] stands no more than 10 nM; under `CCC(=C1CCN(c2ncccn2)CC1)c1scc(C(=O)NCc2c(C)cc(C)[nH]c2=O)c1C` [Example 13, N-((4,6-Dimethyl-2-oxo-1,2-dihydropyridin-3-yl)methyl)-4-methyl-5-(1-(1-(pyrimidin-2-yl)piperidin-4-ylidene)propyl)thiophene-3-carboxamide], 13 nM. With `CCC(=C1CCN(/C(=N/C#N)NC)CC1)c1scc(C(=O)NCc2c(C)cc(C)[nH]c2=O)c1C` [Example 15, 5-(1-(1-(N′-Cyano-N-methylcarbamimidoyl)piperidin-4-ylidene)propyl)-N-((4,6-dimethyl-2-oxo-1,2-dihydropyridin-3-yl)methyl)-4-methylthiophene-3-carboxamide], the IC50 was no more than 10 nM. Turning to `CCC(c1sc2c(c1C)C(=O)N(Cc1c(C)cc(C)[nH]c1=O)CC2)C1CCN(CC(C)(F)F)CC1` (stereo not shown) [Example 16, 2-(1-(1-(2,2-Difluoropropyl)piperidin-4-yl)propyl)-5-((4,6-dimethyl-2-oxo-1,2-dihydropyridin-3-yl)methyl)-3-methyl-6,7-dihydrothieno[3,2-c]pyridin-4(5H)-one], it took 100 nM to reach half-maximal inhibition (IC50). Compound `CCC(c1sc2c(c1C)C(=O)N(Cc1c(C)cc(C)[nH]c1=O)CC2)C1CCN(CC(C)F)CC1` (stereo not shown) [Example 17, 5-((4,6-Dimethyl-2-oxo-1,2-dihydropyridin-3-yl)methyl)-2-(1-(1-(2-fluoropropyl)piperidin-4-yl)propyl)-3-methyl-6,7-dihydrothieno[3,2-c]pyridin-4(5H)-one] displayed an IC50 of 100 nM. Under `CCC(c1sc2c(c1C)C(=O)N(Cc1c(C)cc(C)[nH]c1=O)CC2)C1CCN(/C(=N\C#N)NC)CC1` (stereo not shown) [Example 18, N′-Cyano-4-(1-(5-((4,6-dimethyl-2-oxo-1,2-dihydropyridin-3-yl)methyl)-3-methyl-4-oxo-4,5,6,7-tetrahydrothieno[3,2-c]pyridin-2-yl)propyl)-N-methylpiperidine-1-carboximidamide] stands no more than 10 nM; under `CCC(c1scc(C(=O)NCc2c(C)cc(C)[nH]c2=O)c1C)C1CCN(/C(=N\C#N)NC)CC1` (stereo not shown) [Example 19, 5-(1-(1-(N′-Cyano-N-methylcarbamimidoyl)piperidin-4-yl)propyl)-N-((4,6-dimethyl-2-oxo-1,2-dihydropyridin-3-yl)methyl)-4-methylthiophene-3-carboxamide], 316 nM.
